The values below come from patent US10322103B2, “Compositions for prevention/prophylactic treatment of poison ivy dermatitis” (The University of Mississippi, priority 2008, dated 2019).

Series [1] is described as follows: Polarity: dissolution in ethanol and dilution with aqueous medium. The series is classed as physicochemical. The source says: Polarity of HDC-Phenyl Alaninate Ester:
The subject of series [2] is urushiol contact dermatitis. The series is described as follows: Induction of tolerance to poison ivy/poison oak urushiol in the guinea pig contact dermatitis model. Type of series: in vivo, Hartley guinea pigs. The settings on record: for erythema at the exposure site / erythema or edema observed: Test #1; for erythema at the exposure site: 24, 48 or 72 hrs post challenge, urushiol 3.0, 4.5 and 6.0 ug; for erythema or edema at the site of urushiol challenge: 24 hours, any of the doses used; for skin lesion scores compared to groups IV and V: all the 3 tests. The source says:
Animals: Hartley strains of guinea pigs (n=40) were obtained from Harlan, Indianapolis Ind. 46229. The animals were divided in the 5 groups (n=8/group) and treated as described hereunder. These animals were kept in a controlled environment with a 12-hour day and night cycle and provided feed and water ad libitum. Study design: FIG. 8 describes the general procedure for determining the efficacy of the agents produced according to the present invention.
Application sites of urushiol challenge doses on abdominal skin are shown in FIG. 9, and are described below.
Group I. Animals in this group were given the compound (4) (HDC 4-(4-aminophenyl) butyrate ester) via the intramuscular (IM) route; 300 ul of the equivalent of 20 mg/mL solution of the free catechol in 5% ethanol in each hind leg. Two weeks later these animals were sensitized with urushiol (100 uL acetone containing 1.0 mg of urushiol) on the surface skin in the neck region. Two weeks later the animals were challenged with urushiol (15 uL volume acetone containing 3.0 ug, 4.5 ug or 6.0 ug) on the abdominal skin in a volume of 15 uL. The vehicle contained 15 uL of acetone (see diagram 2). The animals were tested 3 times after sensitization: Test #1 at two weeks post sensitization, test #2 conducted at four weeks post sensitization and test #3 was conducted twelve weeks post sensitization.
Group II. Animals were given 300 uL of the equivalent of 20 mg/mL solution of the free catechol in 5% ethanol of HDC Phenyl alaninate ester (compound 3) via the IM route in each hind leg (total 600 uL). This was followed by sensitization with urushiol on the neck, and then tested with urushiol challenge on the abdominal skin as described for group I.
Group III. Animals were given 300 uL of the equivalent of 20 mg/mL solution of the free catechol in 5% ethanol of HDC Hemiglutarate ester (compound 5) via the IM route in each hind leg. This was followed, two weeks later, by sensitization with (urushiol 100 uL) on the neck, followed by abdominal skin test as described for group I.
Group IV. Animals were given 300 uL of vehicle (5% ethanol) via the IM route in each of the hind legs. This was followed, two weeks later, by sensitization and then followed by abdominal skin test as described for group I.
Group V. Animals in this group were given PBS (300 uL in each of the hind legs) via the IM route. This was followed two weeks later by sensitization and then followed by abdominal skin test as described for group I.
After challenging the animals with urushiol on their abdominal skin, the severity of Erythema and Edema were observed and scored according to the Draize scoring system as shown below. The scores were recorded at 24, 48 and 72 hrs post urushiol skin application.

Where [3] appears, read: Test #2, 48 hours, urushiol challenge dose 4.5 ug.
[4] abbreviates: Test #2, 48 hours, urushiol challenge dose 6.0 ug.

In the case of `CCCCCCCCCCCCCCCCCc1cccc(OC(=O)[C@@H](N)Cc2ccccc2)c1OC(=O)[C@@H](N)Cc1ccccc1` [Compound 3, HDC-Phenyl Alaninate Ester], the “appearance of solution (polarity)” value in series [1] (10 mg dissolved in 50 ul of ethanol, adjusted to 1 ml with water) is “formed a homogenous solution”. Further, in series [2], the “erythema at the exposure site” value is on record as “did not show any or showed very slight erythema”; the “skin lesion scores compared to groups IV and V” value is recorded as “negligible”. In addition, the “erythema or edema observed” value in series [2] (48 hours post challenge) is “no erythema or edema was observed”. In addition, the “erythema or edema observed” value in series [2] (72 hours post challenge) was “no erythema or edema was observed”. The skin lesion score in series [2] (Test #2, 48 hours, all challenge doses) is at most 1.0. Besides, the “erythema or edema at the site of urushiol challenge” value (from here on “erythema or edema at the site”) in series [2] (Test #3) is reported as “did not show erythema or edema”. The lesion score in series [2] (Test #3, 48 hours) was at most 1.0.

Regarding `CCCCCCCCCCCCCCCCCc1cccc(OC(=O)CCCc2ccc(N)cc2)c1OC(=O)CCCc1ccc(N)cc1` [Compound 4], the “appearance of solution (polarity)” value in series [1] (10 mg as a HCl salt in 50 ul of ethanol, adjusted to 1 mL with water (10 mg/mL)) is “clear solution”. Moreover, the “erythema at the exposure site” value in series [2] is listed as “did not show any or showed very slight erythema”. Further, the “erythema or edema observed” value in series [2] (48 hours post challenge) and in series [2] (72 hours post challenge) was “no erythema or edema was observed” each time. Further, the “total skin lesion score” value in series [2] (setting [3]) and in series [2] (setting [4]) was 1.5 each time. The “erythema or edema at the site” value in series [2] (Test #3) is “did not show erythema or edema”. Besides, the “skin lesion scores compared to groups IV and V” value in series [2] is on record as “negligible”.

With `CCCCCCCCCCCCCCCCCc1cccc(OC(=O)CCCC(=O)O)c1OC(=O)CCCC(=O)O` [Compound 5, 5,5′(3-heptadecyl-1,2-phenylene)bis(oxy)bis(5-oxopentanoic acid)], in series [1] (10 mg in 50 ul of ethanol, adjusted to 1 ml with potassium phosphate buffer (pH 8)), the “appearance of solution (polarity)” value was “formed a homogenous solution”. Also, the “erythema at the exposure site” value in series [2] was “did not show any or showed very slight erythema”. Further, the “erythema or edema observed” value in series [2] (48 hours post challenge) and in series [2] (72 hours post challenge) was “no erythema or edema was observed” each time. Further, the “total skin lesion score” value in series [2] (setting [3]) is reported as 1.0; in series [2] (setting [4]), 2.5. In addition, the total lesion score in series [2] (Test #2, 72 hours) is at most 2.0. The “erythema or edema at the site” value in series [2] (Test #3) is “did not show erythema or edema”. The “skin lesion scores compared to groups IV and V” value in series [2] is recorded as “negligible”.
